Measured values: article PMC10428208, “Phototoxicity of Tridentate Ru(II) Polypyridyl Complex with Expanded Bite Angles toward Mammalian Cells and Multicellular Tumor Spheroids” (Inorganic Chemistry, 2023)
Like-named read-outs stand apart in the source and are kept apart here. Marks after values point to notes of the source that are not given here.

Legend:
HeLa cells = conditions: irradiation dose of 5 J/cm^2; cited from earlier work
Excerpt: It is important to highlight that a direct comparison between the other reported PIs is difficult to make because of the diversity of conditions used to determine PI values. Because PI is influenced by a range of factors, including the cell type extent of permeability of a given agent and the irradiation dose.[72] […] Based on control studies with untreated CHO, A549, and HPAC cell monolayers, we selecte ...

[1] = system: HPAC multicellular spheroids (3D); assay type: cell-based, human; conditions: 24 h treatment, 23.5 h recovery, CellTiter-Glo 3D, average of three plates
Experimental: Spheroid viability was evaluated using a CellTiter-Glo 3D assay. Although the alamar blue assay is a robust and reliable option for 2D cell viability, the CellTiter-Glo 3D assay is specifically designed to penetrate deeper into 3D cell culture and thus offers better specificity for these studies. Cells were seeded in round-bottom 96 well plates at 2 × 10^4 cells per well and grown for 96 h. The cells were treated for 24 h and a media change performed. A 470 nm LED was used to irradiate the spheroids at 4.27 ± 0.41 J/cm^2 (30 min at 2.37 ± 0.23 mW/cm^2) and a dark control plate was performed simultaneously. Irradiation conditions were tested on untreated spheroids to confirm whether viability remained unaffected at this irradiation dosage before any experiments were performed. The spheroids were allowed to recover and the CellTiter-Glo 3D assay was performed to determine cell viability as per the manufacturer’s protocol. Percentage cell viability was determined relative to the untreated control spheroids.
The dark and phototoxicity of the parent and peptide conjugates were also assessed in HPAC spheroids. […] Cell viability was determined using the CellTiter-Glo 3D luminescence-based assay, and viability assays were performed in triplicate. […] As in the 2D alamar blue assay protocol, % viability is calculated relative to untreated control spheroids.

HPAC cell monolayers = assay type: cell-based, human; conditions: 24 h incubation in the dark, alamar blue added immediately, no recovery, N=3, read-out: IC50, dark toxicity
Experimental: (§1) The alamar blue assay (Invitrogen) was used to assess the viability of A549, CHO, and HPAC cell monolayers treated with the Ru(II) probes, Ru-bqp-ester, Ru-bqp-MPP, Ru-bqp-R8. CHO, A549, and 2D HPAC cells were seeded in a 96-well plate (Nunc, flat bottom cell culture treated) at 1 × 10^4 cells per well, i.e., in 100 μL media for 24 h at 37 °C with 5% CO2. Ru-bqp-ester, Ru-bqp-R8, and Ru-bqp-MPP were added for 24 h at 37 °C and 5% CO2 in the absence of light. The alamar blue (Resazurin) assay was performed to measure cell viability by replacing the test solution with 100 μL of a 10% v/v media/resazurin solution and incubating for 5 h at 37 °C in the absence of light. Absorbance was measured using a BMG Labtech ClarioStar (plus) plate reader at 570 and 600 nm (corrected for background subtraction). Cell viability is presented as a percentage (%) compared to untreated control wells.
(§2) The alamar blue (Resazurin) assay was used to assess cell viability of CHO, A549, and HPAC cell monolayers after 24 h incubation in the dark with the complexes and conjugates. In the presence of metabolically active cells, the alamar blue dye is reduced to resorufin and changes from navy blue to a pink color depending on the number of viable cells. Thus, this assay can be used as a simple direct indicator of cell viability. […]

CHO cells [2] = experiment: Phototoxicity with dark control plate, 470 nm LED, alamar blue; assay type: cell-based, Chinese hamster; conditions: 30 min incubation, 470 nm LED 17 J/cm^2, alamar blue, triplicate, read-out: IC50 under irradiation
Experimental: (§3) All cell monolayers were prepared as described above for the phototoxicity assay. A549 and CHO cells were treated at varying concentrations of the complexes and incubated for 30 min in the absence of light, HPAC were incubated for 2 h to allow uptake. A 470 nm blue light LED array was used to irradiate the cells in the wells at a total dose of 17 ± 1.64 J/cm^2 (2 h at 2.37 ± 0.23 mW/cm^2). A dark control plate was performed alongside all phototoxicity plates. Irradiation conditions were tested on untreated cells to confirm cells remained viable at this dose before any experiments were performed and each phototoxicity plate included untreated test wells for cell viability comparison. All viability assays were performed in triplicate.
The test solutions were then decanted, and the wells replaced with phenol red free media. The phototoxicity plate was irradiated using a 470 nm LED, corresponding to which is close to the absorbance maximum associated with the ^1MLCT of the complex, total irradiation dose 17 ± 1.64 J/cm^2 (constituting 2 h at 2.37 ± 0.23 mW/cm^2) at 37 °C, and the control plate was maintained under the same conditions in the dark. […]
Similar to the phototoxicity studies in A549 cells, an incubation time of 30 min was selected for CHO cells to allow uptake. […] Cell viability was determined relative to untreated control wells using an alamar blue assay. […]

[3] = Photophysical measurements (luminescence lifetime, quantum yield); assay type: physicochemical
Experimental: Absorbance measurements of the Ru(II) complexes at 20 μM were performed using a Jasco V670 spectrophotometer. Emission spectra were collected using a Varian Cary Eclipse fluorescence spectrophotometer and luminescent lifetime measurements were performed on a PicoQuant FluoTime 100 FLS TCSPC system using a 450 nm pulsed laser and an external pulse generator. Lifetime decay curves were analyzed using the PicoQuant Fluofit software with fitting criteria; 0.9 < X^2 < 1.1. For O2 sensitivity studies, the emission spectrum and luminescent lifetime of each complex (10 μM) were recorded under O2 saturation, and after N2 purge for 20 min. All measurements were performed in triplicate and reported as the mean ± SD.

[4] = parameters: method as in doi:10.3390/organoids1020012, PMID 35485712; conditions: previously published, 298 K, deaerated MeOH/EtOH solution; printed in the MeCN row; cited from earlier work
A549 cells [5] = system: A549 cells
Experimental: as §3
The phototoxicities of the Ru-bqp-ester, Ru-bqp-R8, and Ru-bqp-MPP were next compared across the three cell line monolayers. Two identical plates, a dark control and phototoxicity plate, were prepared and incubated with varying concentrations of Ru-bqp-ester, Ru-bqp-R8, and Ru-bqp-MPP for 30 min or 2 h depending on the cell line. The test solutions were then decanted, and the wells replaced with phenol red free media. The phototoxicity plate was irradiated using a 470 nm LED, corresponding to which is close to the absorbance maximum associated with the ^1MLCT of the complex, total irradiation dose 17 ± 1.64 J/cm^2 (constituting 2 h at 2.37 ± 0.23 mW/cm^2) at 37 °C, and the control plate was maintained under the same conditions in the dark. The cells were then incubated for a further 21.5 h at 37 °C with 5% CO2 to allow for cell recovery. An alamar blue assay was performed to assess cell viability.
To overcome potential efflux of the complexes from the A549 cells, a shorter complex incubation time of 30 min was selected prior to irradiation.

HPAC spheroids = experiment: Uptake in spheroids, confocal imaging; conditions: 24 h incubation
Experimental: HPAC cells were seeded in U-bottom 96 well-plates pre-treated with 0.5% polyHEMA [poly(2-hydroxyethyl methacrylate), Sigma in 95% ethanol] at 2 × 10^4 cells per well. The plate was then centrifuged at 700 rpm at 37 °C using a BMG Labtech ClarioStar (plus) plate reader for 10 min. The cells were incubated for 96 h to allow spheroid formation before any dye was added for imaging studies. Ru-bqp-ester, Ru-bqp-MPP, and Ru-bqp-R8 were added to the spheroids at 30 and 100 μM in the 96 well plates and after 24 h incubation, the spheroids were carefully transferred to an 8-chamber slide (ibidi), with a single spheroid per chamber, and directly imaged using a Leica TCS DMi8 confocal microscope (40× oil immersion objective). Hoechst 33342 nuclear stain (1 μg/mL) was added to the spheroids for 45 min as a contrast agent and excited using a 405 nm laser with emission collected between 425 and 475 nm. The Ru(II) complexes were excited using a white light laser at 490 nm and emission collected between 580 and 730 nm. Spheroid images were acquired using z-scanning across the z-axis of the samples. On average, 40–50 images were acquired per z-scan and used to obtain 3D spheroid reconstructions using Leica Application Suite X (LAS X) software.
Confocal fluorescence imaging was performed to determine if the cellular uptake observed in 2D culture extends to 3D models. […]

CHO cells [6] = assay type: cell-based, Chinese hamster; conditions: 24 h incubation in the dark, alamar blue added immediately, no recovery, N=3, read-out: IC50, dark toxicity
Experimental: as §1, §2

A549 cells [7] = conditions: read-out: IC50, dark toxicity; A549, 24 h incubation in the dark, alamar blue added immediately, no recovery, N=3
Experimental: as §1, §2

HPAC 2D cell monolayers = assay type: cell-based, human
Experimental: as §3
The test solutions were then decanted, and the wells replaced with phenol red free media. The phototoxicity plate was irradiated using a 470 nm LED, corresponding to which is close to the absorbance maximum associated with the ^1MLCT of the complex, total irradiation dose 17 ± 1.64 J/cm^2 (constituting 2 h at 2.37 ± 0.23 mW/cm^2) at 37 °C, and the control plate was maintained under the same conditions in the dark. The cells were then incubated for a further 21.5 h at 37 °C with 5% CO2 to allow for cell recovery. An alamar blue assay was performed to assess cell viability.
The HPAC cells required a longer incubation period of 2 h prior to irradiation to account for slower uptake. […] In summary, Ru-bqp-ester is minimally toxic in the dark but highly phototoxic in all test cells when activated using a 470 nm LED. Furthermore, the peptide conjugates Ru-bqp-R8 and Ru-bqp-MPP show phototoxic potential in cancerous cell lines A549 and HPAC selected for analysis. The increased uptake of the MPP peptide conjugate into the mitochondria, as determined by our co-localization studies, could be linked to the higher phototoxicity of the complex in A549 and HPAC cells and also the increased dark toxicity in HPAC and CHO cell monolayers in comparison to the parent and R8 peptide conjugate.

A549 cell monolayers = system: A549 cell monolayers; parameters: method as in PMID 22553960; conditions: cited from earlier work
HL60 leukemia cells = system: HL60 leukemia cells; parameters: method as in PMID 22553960; conditions: cited from earlier work

For Photofrin, the PI (HeLa cells) is given as > 10.

With [Ru(bqp)(bqpCOOEt)]^2+ [Ru-bqp-ester] the IC50 ([1]; 470 nm LED 4.27 ± 0.41 J/cm^2 (30 min), read-out: IC50 light, HPAC multicellular spheroids (3D)) was > 100 µM, the IC50 ([1]; dark control plate, read-out: IC50 dark, HPAC multicellular spheroids (3D)) was > 100 µM and the IC50 (HPAC cell monolayers) was > 100 µM. The IC50 (CHO cells [2]) was < 5 µM, the τlum aerated ([3]; MeCN, mean ± SD of triplicate) was 384 ± 1 ns and the τlum aerated ([3]; PBS (pH 7.4), 450 nm pulsed laser, TCSPC, mean ± SD of triplicate) was 782 ± 18 ns. For the same molecule, the τlum deaerated ([3]; PBS (pH 7.4), deaerated (N2 purge 20 min), mean ± SD of triplicate) was 1320 ± 20 ns, the “emission lifetime on deaeration” value ([3]; PBS buffer (pH 7.4), deaerated) was “over 1.3 μs” and the emission quantum yield Φ [4] was 4%. The τlum deaerated [4] was 4300 ^a ns, the “cell viability, A549 dark control” value (A549 cells [5]; dark control plate, 30 min incubation, up to 100 μM, not graphed) was > 80% and the “A549 cells dead following photoirradiation” value (A549 cells [5]; dose of <5 μM, 30 min incubation, 470 nm LED 17 J/cm^2) was “More than 70%”. The IC50 (A549 cells [5]; read-out: IC50 under irradiation, A549, 30 min incubation, 470 nm LED 17 ± 1.64 J/cm^2 (2 h), 21.5 h recovery, alamar blue) was < 5 µM, the “uptake in HPAC spheroids” value (HPAC spheroids; 30 μM) was “some uptake” and the “uptake in HPAC spheroids” value (HPAC spheroids; 100 μM) was “complete internalization”. For the same molecule, the IC50 (CHO cells [6]) was > 100 µM, the IC50 (A549 cells [7]) was > 100 µM and the IC50 (HPAC 2D cell monolayers; 2 h incubation, 470 nm LED 17 J/cm^2, read-out: IC50 under irradiation, HPAC cells) was 0.77 ± 0.11 µM. The IC50 (HPAC 2D cell monolayers; dark control plate, 2 h incubation then recovery in the dark, alamar blue, average of three plates, triplicate per plate, read-out: IC50 dark, HPAC 2D cell monolayers) was 585 ± 6.28 µM and the “PI (phototoxic index), HPAC 2D cell monolayers” value (HPAC 2D cell monolayers; ratio of dark to light IC50 values, 17 ± 1.64 J/cm^2 at 470 nm) was 760.

For NCC(=O)CCC(=O)O [ALA, aminolevulinic acid], the PI (A549 cell monolayers) is given as 4.2 and the PI (HL60 leukemia cells) is given as > 18.
